Laboratory results from US10577353B2, “5-(n-[6,5]-fused bicyclic aryl tetrahydroisoquinolin-6-yl) pyridin-3-yl acetic acid derivatives as inhibitors of human immunodeficiency virus replication” (priority 2015, dated 2020).

Tested on: recombinant NL-RLuc virus (NL4-3 derived HIV)
Experiment: Inhibition of HIV replication (NL-RLuc virus in MT-2 cells, luciferase readout)
Format: cell-based
Conditions: Human immunodeficiency virus 1, NL43, MT2, 120 h
Excerpt: Inhibition of HIV Replication:
A recombinant NL-RLuc proviral clone was constructed in which a section of the nef gene from NL4-3 was replaced with the Renilla Luciferase gene. This virus is fully infectious and can undergo multiple cycles of replication in cell culture. In addition, the luciferous reporter provides a simple and easy method for quantitating the extent of virus growth and consequently, the antiviral activity of test compounds. The plasmid pNLRLuc contains the proviral NL-Rluc DNA cloned into pUC 18 at the PvuII site. The NL-RLuc virus was prepared by transfection of 293T cells with the plasmid pNLRLuc. Transfections were performed using the LipofectAMINE PLUS kit from Invitrogen (Carlsbad, Calif.) according to the manufacturer and the virus generated was titered in MT-2 cells. For susceptibility analyses, the titrated virus was used to infect MT-2 cells in the presence of compound, and after 5 days of incubation, cells were processed and quantitated for virus growth by the amount of expressed luciferase. Assay media was RPMI 1640 supplemented with 10% heat inactivated fetal bovine serum (FBS), 100 units/ml penicillin G/100 units/ml streptomycin, 10 mM HEPES buffer pH 7.55 and 2 mM L-glutamine. The results from at least 2 experiments were used to calculate the EC50 values. Luciferase was quantitated using the Dual Luciferase kit from Promega (Madison, Wis.). Susceptibility of viruses to compounds was determined by incubation in the presence of serial dilutions of the compound. The 50% effective concentration (EC50) was calculated by using the exponential form of the median effect equation where (Fa)=1/[1+(ED50/drug conc.)^m] (Johnson V A, Byington R T. Infectivity Assay. In Techniques in HIV Research. ed. Aldovini A, Walker B D. 71-76. New York: Stockton Press. 1990).

How did the EC50 turn out when `Cc1nc(C)c([C@H](OC(C)(C)C)C(=O)O)c(N2CCC(C)(C)CC2)c1-c1ccc2c(c1)CCN(c1ncnc3cc[nH]c13)C2` [Compound 22, (S)-2-(5-(2-(5H-pyrrolo[3,2-d]pyrimidin-4-yl)-1,2,3,4-tetrahydroisoquinolin-6-yl)-4-(4,4-dimethylpiperidin-1-yl)-2,6-dimethylpyridin-3-yl)-2-(tert-butoxy)acetic acid] was run?
Its EC50 is 286 nM.

Which EC50 does the source give for `CNc1nc(N2CCc3cc(-c4c(C)nc(C)c([C@H](OC(C)(C)C)C(=O)O)c4N4CCC(C)(C)CC4)ccc3C2)nc2nc[nH]c12` [Compound 23, (S)-2-(tert-butoxy)-2-(4-(4,4-dimethylpiperidin-1-yl)-2,6-dimethyl-5-(2-(6-(methylamino)-7H-purin-2-yl)-1,2,3,4-tetrahydroisoquinolin-6-yl)pyridin-3-yl)acetic acid] here?
Its EC50 is 62 nM.

With `Cc1nc(C)c([C@H](OC(C)(C)C)C(=O)O)c(N2CCC(C)(C)CC2)c1-c1ccc2c(c1)CCN(c1nccc3[nH]cnc13)C2` [Compound 24, (S)-2-(5-(2-(1H-imidazo[4,5-c]pyridin-4-yl)-1,2,3,4-tetrahydroisoquinolin-6-yl)-4-(4,4-dimethylpiperidin-1-yl)-2,6-dimethylpyridin-3-yl)-2-(tert-butoxy)acetic acid] as the compound, how does the EC50 read?
The EC50 was 56 nM.

Which EC50 does the source give for `Cc1nc(C)c([C@H](OC(C)(C)C)C(=O)O)c(N2CCC(C)(C)CC2)c1-c1ccc2c(c1)CCN(c1ncc3cc[nH]c3n1)C2` [Compound 25, (S)-2-(5-(2-(7H-pyrrolo[2,3-d]pyrimidin-2-yl)-1,2,3,4-tetrahydroisoquinolin-6-yl)-4-(4,4-dimethylpiperidin-1-yl)-2,6-dimethylpyridin-3-yl)-2-(tert-butoxy)acetic acid] here?
Its EC50 is 4 nM.

Which EC50 does the source give for `COc1nc(N2CCc3cc(-c4c(C)nc(C)c([C@H](OC(C)(C)C)C(=O)O)c4N4CCC(C)(C)CC4)ccc3C2)c2cc[nH]c2n1` [Compound 27, (S)-2-(tert-butoxy)-2-(4-(4,4-dimethylpiperidin-1-yl)-5-(2-(2-methoxy-7H-pyrrolo[2,3-d]pyrimidin-4-yl)-1,2,3,4-tetrahydroisoquinolin-6-yl)-2,6-dimethylpyridin-3-yl)acetic acid] here?
Its EC50 is 2 nM.

How did the EC50 turn out when `Cc1nc(C)c([C@H](OC(C)(C)C)C(=O)O)c(N2CCC(C)(C)CC2)c1-c1ccc2c(c1)CCN(c1ncnc3cc(C(C)(C)C)sc13)C2` [Compound 28, (S)-2-(tert-butoxy)-2-(5-(2-(6-(tert-butyl)thieno[3,2-d]pyrimidin-4-yl)-1,2,3,4-tetrahydroisoquinolin-6-yl)-4-(4,4-dimethylpiperidin-1-yl)-2,6-dimethylpyridin-3-yl)acetic acid] was run?
The EC50 was 13 nM.
